Where two headings read alike, the source gives them in different places.
What was measured:
Assay in all cases: Canine array gene expression profile of liver from dog dosed with erythromycin estolate
Assay type in all cases: in vivo
[1] = test system: Cytochrome P450 2C21 (gene expression); settings: dog, liver, 100 mg/kg
Description: (§1) For liver or kidney, about 0.15-0.20 g of tissue was weighed and placed in a 15 ml conical tube. All tissue were kept on dry ice when other samples were being weighed.
(§2) About 3.8 ml of RLT buffer was added to the tube containing the sample. The RLT buffer® from Qiagen can be prepared beforehand by adding 10 μl betamercaptoethanol to each 1.0 ml of lysis buffer needed. The tissue was homogenized using the rotor-stator homogenizer for 45 seconds. A IKA Ultra Turrax T25 homogenizer set at speed 4 with the S25N-10G dispersing element can be used. Alternatively, a Virtishear Cyclone 750W rotor/stator homogenizer (Virtis item #278077) can be used with the 7 mm microfine sawtooth shaft and generator (195 mm long with a processing range of 0.25 ml to 20 ml, item #372718). After homogenization, samples were stored on ice until all samples were homogenized. To clean the homogenizing tip between samples, the tip was first run for a few seconds in 95% ethanol and then rinsed by squirting with fresh 95% ethanol. This process was repeated with nanopure water.
(§3) The tissue lysate was centrifuged at room temperature for 10 minutes at 3700-3800 rpm in a Beckman GS-6 (or equivalent) centrifuge to remove nuclei thus reducing DNA contamination.
(§4) The supernatant of the lysate was transferred to a clean 15 ml conical tubes containing an equal volume of 70% EtOH in DEPC treated H2O, being careful not to include any of the pellet or fatty layer and mixed. About 3.8 ml of sample was added to the RNeasy spin column placed in a 15 ml centrifuge tube and centrifuged at 3000×g (3690-3710 rpm, Beckman GS-6) for 5 min. The flow-through was discarded. The remaining sample was added to the appropriate column and spun at 3000×g for 5 minutes and the flow-through was discarded.
(§5) About 4.0 ml of Buffer RW1 (Qiagen®) was added to the column and spun as before then about 2.5 ml of buffer RPE (Qiagen®) was added to column and spun at 3000×g (3690-3710 rpm, Beckman GS-6) for 2 minutes. In this example, RPE buffer was supplied as a concentrate so 4 volumes of 95% EtOH was added before use. For the midi kit, about 220 ml of 95% EtOH would be added to 55 ml of RPE. Another 2.5 ml of buffer RPE was added and spun for 5 minutes to also dry out column. The column, including the tip, should be dry for the next elution step.
(§6) For elution, the column that has the RNA bound to a clean 15 ml tube was transferred and 200 μl of RNase-free water was added to the column, allowed to sit for 1 minute, and spun for 3 minutes at 3000×g (3690-3710 rpm, Beckman GS6). This step was repeated into the same tube but with 200 μl RNase-free water.
(§7) Liver and kidney organs were isolated from a dog which was dosed with erythromycin esolate at 100 mg/kg/day for 2 or 10 days. The dog was euthanized 16 hours after the last dosage and the organs were harvested according to standard sterile procedure. RNA was isolated from the kidney and liver as detailed in Example 1. cDNA was made from the RNA and used as probes as detailed in the Examples above.

[2] = test system: Cytochrome P450 2D (gene expression); settings: dog, liver, 100 mg/kg
Description: as §1, §2, §3, §4, §5, §6, §7

[3] = test system: canine liver gene expression; settings: Canis lupus familiaris, 240 h, 10 days
Description: as §1, §2, §3, §4, §5, §6, §7

fold induction at 10 days [1]: 1.3
fold induction at 10 days [2]: 1.1
Structure (SMILES): CCC(=O)O[C@H]1[C@H](O[C@@H]2[C@@H](C)[C@H](O[C@H]3C[C@@](C)(OC)[C@@H](O)[C@H](C)O3)[C@@H](C)C(=O)O[C@H](CC)[C@@](C)(O)[C@H](O)[C@@H](C)C(=O)[C@H](C)C[C@@]2(C)O)O[C@H](C)C[C@@H]1N(C)C [erythromycin estolate]
fold induction at 100 mg/kg ([3]; read-out: Alkaline phosphatase fold induction): 1.5
fold induction at 100 mg/kg ([3]; read-out: Angiopoietin-related protein 3 (ANGPTL3) fold induction): 1.5
fold induction at 100 mg/kg ([3]; read-out: BR-cadherin fold induction): 1.2
fold induction at 100 mg/kg ([3]; read-out: BRCA1 fold induction): 1.5
fold induction at 100 mg/kg ([3]; read-out: Beta-glucuronidase fold induction): 1.5
fold induction at 100 mg/kg ([3]; read-out: Canis familiaris mitochondrion, complete genome fold induction): 1.1
fold induction at 100 mg/kg ([3]; read-out: Catalase fold induction): 1.4
fold induction at 100 mg/kg ([3]; read-out: Caveolin-2 fold induction): 1.2
fold induction at 100 mg/kg ([3]; read-out: Cubilin fold induction): 1.1
fold induction at 100 mg/kg ([3]; read-out: Cytochrome c oxidase subunit II fold induction): 1.6
fold induction at 100 mg/kg ([3]; read-out: Cytochrome c oxidase subunit VIIaL fold induction): 1
fold induction at 100 mg/kg ([3]; read-out: c-erb B-2 fold induction): 1.3
